Data from patent US20230277612A1, “SAPONIN DERIVATIVES FOR USE IN MEDICINE” (priority 2020, published 2023).
Where “and” joins values, the source holds several entries; their conditions need not be identical. Equal values may be shown once. Read-outs that look alike come from different tables or passages of the source.

What was measured:
[1] = Critical micellar concentration (CMC) by ANS fluorescence; format: physicochemical; conditions: for CMC: Table A7, determined in PBS
Method: The critical micellar concentration (CMC) of saponins derived from Saponaria officinalis (SO) (Table A7) and derived from Quillaja saponaria (QS) (Table A8, and Table A9) was determined by the method of DeVendittis et al. (A fluorimetric method for the estimation of the critical micelle concentration of surfactants, Analytical Biochemistry, Volume 115, Issue 2, August 1981, Pages 278-286) as follows:
(§1) The emission spectrum of 8-Anilinonaphthalene-1-sulfonic acid (ANS) in either purified water (MQ) or PBS (Dulbecco's PBS+/+) was determined at dry weight concentrations of saponins ranging from 1 to 1400 pM to cover the range below and above the CMC. Above the CMC, the fluorescence yield of ANS increases and the wavelength of maximum emission decreases due to portioning of the fluorescent dye into micelles. Fluorescence yields were recorded on a Fluoroskan Ascent FL (Thermo Scientific) at an excitation wavelength of 355 nm, and an emission wavelength of 460 nm. 6 μg at a concentration of 75.86 pM of ANS were used per sample and measurement.
The critical micellar concentration (CMC) of saponins was determined by the method of DeVendittis et al. (A fluorimetric method for the estimation of the critical micelle concentration of surfactants, Analytical Biochemistry, Volume 115, Issue 2, August 1981, Pages 278-286) as follows:
as §1, with “μM” for “pM”

HeLa cells = assay: cells; format: cell-based
Method: (§2) (FIGS. 66a and 66B). Next toxicity was determined, for this the modified saponins were titrated on HeLa and A431 cells. […] Next toxicity was determined, for this the modified saponins were titrated on HeLa and A431 cells.

human red blood cells = assay: cells; format: cell-based
Method: Red blood cells (RBCs) were isolated from a buffy coat using a Ficoll gradient. The obtained RBC pellet (˜4-5 ml) was washed 2× with 50 ml DPBS (without Ca^2+/Mg^2+, PAN-Biotech GmbH). Cells were pelleted by centrifugation for 10 min, 800×g at RT. RBC were counted and resuspended at 500.000.000 c/ml in DPBS (without Ca^2+/Mg^2+), based on total cell count.
Saponin dilutions were prepared in DPBS (with Ca^2+/Mg^2+, PAN-Biotech GmbH), at 1.11× final strength. For positive lysis control a 0.02% Triton-X100 solution was prepared in DPBS^+/+. Of all compound solutions 135 μl was dispensed/well in a 96 well V-bottom plate. To this 15 μl RBC suspension was added and mixed shortly (10 sec-600 rpm). The plate was incubated 30 min at RT, with gentle agitation. Afterwards the plate was spun for 10 min at 800×g to pellet the RBC and 100-120 μl supernatant was transferred to a standard 96 wp (96 well-plate).
Saponin dilutions were prepared in DPBS (with Ca^2+/Mg^2+, PAN-Biotech GmbH), at 1.11× final strength. For positive lysis control a 0.02% Triton-X100 solution was prepared in DPBS+/+. Of all compound solutions 135 μl was dispensed/well in a 96 well V-bottom plate. To this 15 μl RBC suspension was added and mixed shortly (10 sec-600 rpm). The plate was incubated 30 min at RT, with gentle agitation. Afterwards the plate was spun for 10 min at 800×g to pellet the RBC and 100-120 μl supernatant was transferred to a standard 96 wp (96 well-plate).

[2] = test system: EGFR expressing cells (HeLa); format: cell-based
[3] = test system: EGFR expressing cells (A431); format: cell-based
A431 cells = assay: cells; format: cell-based
Method: as §2

[4] = Table A12, read-out: IC50 nM (Toxicity)
[5] = read-out: IC50 hemolytic activity
[6] = HeLa, + 5 pM EGFdianthin, read-out: IC50 endosomal escape enhancing activity
[7] = A431, + 5 pM EGFdianthin, read-out: IC50 endosomal escape enhancing activity
[8] = Table A5, saponin alone, read-out: IC50 nM (Toxicity)
[9] = Table A6, saponin alone, read-out: IC50 nM (Toxicity)
[10] = Table A5, read-out: IC50 nM (hemolysis)
[11] = Table A6, read-out: IC50 nM (hemolysis)
[12] = Table A5, HeLa cells, saponin titrated + 5 pM EGFdianthin, read-out: IC50 nM (Activity)
[13] = Homo sapiens, HeLa, Table A5, saponin alone, read-out: IC50 nM (Toxicity)
[14] = Homo sapiens, HeLa, saponin alone, read-out: IC50 toxicity
[15] = saponin alone, read-out: IC50 toxicity

CC(=O)OC1C(C)OC(OC2C(C)OC(OC(=O)C34CCC(C)(C)CC3C3=CCC5C6(C)CCC(OC7OC(C(=O)O)C(O)C(OC8OCC(O)C(O)C8O)C7OC7OC(CO)C(O)C(O)C7O)C(C)(C=NNC(=O)CCCCCN7C(=O)C=CC7=O)C6CCC5(C)C3(C)CC4O)C(OC3OC(C)C(OC4OCC(O)C(OC5OC(CO)C(O)C(O)C5O)C4O)C(O)C3O)C2O)C(O)C1OC1OCC(O)C(O)C1O (stereo not drawn) [Molecule 2]
CMC compared to corresponding underivatised saponin [1]: increased CMC

CC[C@H](C)[C@H](C[C@H](O)CC(=O)OC1C(C)OC(OC(=O)[C@]23CCC(C)(C)CC2C2=CCC4[C@@]5(C)CC[C@H](OC6OC(C(=O)NC(C)(CO)CO)C(O)C(OC7OCC(O)C(O)C7O)C6OC6OC(CO)C(O)C(O)C6O)[C@@](C)(/C=N/NC(=O)CCCCCN6C(=O)C=CC6=O)C5CC[C@@]4(C)[C@]2(C)C[C@H]3O)C(OC2OC(C)C(OC3OCC(O)C(OC4OCC(O)(CO)C4O)C3O)C(O)C2O)C1O)OC(=O)C[C@@H](O)C[C@H](OC1OC(CO)C(O)C1O)[C@@H](C)CC (stereo partly drawn) [QS21-(Ald-EMCH)-(Glu-AMPD)]
IC50 (HeLa cells; [4]): > 30000 nM | IC50 (human red blood cells; Table A12, read-out: IC50 nM (hemolysis)): > 300000 nM | IC50 (human red blood cells; [5]): > 300000 nM

CC[C@H](C)[C@H](C[C@H](O)CC(=O)OC1C(C)OC(OC(=O)[C@]23CCC(C)(C)CC2C2=CCC4[C@@]5(C)CC[C@H](OC6OC(C(=O)O)C(O)C(OC7OCC(O)C(O)C7O)C6OC6OC(CO)C(O)C(O)C6O)[C@@](C)(/C=N/NC(=O)CCCCCN6C(=O)C=CC6=O)C5CC[C@@]4(C)[C@]2(C)C[C@H]3O)C(OC2OC(C)C(OC3OCC(O)C(OC4OCC(O)(CO)C4O)C3O)C(O)C2O)C1O)OC(=O)C[C@@H](O)C[C@H](OC1OC(CO)C(O)C1O)[C@@H](C)CC (stereo partly drawn) [QS21-Ald-EMCH]
IC50 (HeLa cells; [4]): > 30000 nM | IC50 [2, 6]: 900 nM | IC50 [3, 7]: 900 nM

CC(=O)OC1C(C)OC(OC2C(C)OC(OC(=O)[C@]34CCC(C)(C)CC3C3=CCC5[C@@]6(C)CC[C@H](OC7OC(C(=O)O)C(O)C(OC8OCC(O)C(O)C8O)C7OC7OC(CO)C(O)C(O)C7O)[C@@](C)(C=O)C6CC[C@@]5(C)[C@]3(C)C[C@H]4O)C(OC3OC(C)C(OC4OCC(O)C(OC5OCC(O)C(O)C5O)C4O)C(O)C3O)C2O)C(O)C1OC1OCC(O)C(O)C1O (stereo partly drawn) [SO1832, reference compound]
IC50 (human red blood cells; [5]): ~10000 nM

CC1OC(OC2C(C)OC(OC(=O)C34CCC(C)(C)CC3C3=CCC5C6(C)CCC(OC7OC(C(=O)NC(C)(CO)CO)C(O)C(OC8OCC(O)C(O)C8O)C7OC7OC(CO)C(O)C(O)C7O)C(C)(C=NNC(=O)CCCCCN7C(=O)C=CC7=O)C6CCC5(C)C3(C)CC4O)C(OC3OC(C)C(OC4OCC(O)C(OC5OC(CO)C(O)C(O)C5O)C4O)C(O)C3O)C2O)C(O)C(OC2OCC(O)C(O)C2O)C1O (stereo not drawn) [SO1861-(Ald-EMCH)-(Ac—OH)-(Glu-AMPD)]
IC50 (HeLa cells; [8]): > 100000 nM | IC50 (A431 cells; [9]): > 100000 nM | IC50 (human red blood cells; [10]): > 1e+06 nM | IC50 (human red blood cells; [11]): > 1e+06 nM | IC50 [2, 12]: > 20000 nM | IC50 ([3]; Table A6, A431 cells, saponin titrated + 5 pM EGFdianthin, read-out: IC50 nM (Activity)): > 20000 nM

CC(=O)OC1C(C)OC(OC2C(C)OC(OC(=O)C34CCC(C)(C)CC3C3=CCC5C6(C)CCC(OC7OC(C(=O)NC(C)(CO)CO)C(O)C(OC8OCC(O)C(O)C8O)C7OC7OC(CO)C(O)C(O)C7O)C(C)(C=NNC(=O)CCCCCN7C(=O)C=CC7=O)C6CCC5(C)C3(C)CC4O)C(OC3OC(C)C(OC4OCC(O)C(OC5OC(CO)C(O)C(O)C5O)C4O)C(O)C3O)C2O)C(O)C1OC1OCC(O)C(O)C1O (stereo not drawn) [SO1861-(Ald-EMCH)-(Glu-AMPD)]
IC50 (HeLa cells; [8]): > 100000 nM | IC50 (A431 cells; [9]): > 100000 nM | IC50 (human red blood cells; [10]): > 1e+06 nM | IC50 (human red blood cells; [11]): > 1e+06 nM | CMC [1]: >30 µM

CC1OC(OC2C(C)OC(OC(=O)[C@]34CCC(C)(C)CC3C3=CCC5[C@@]6(C)CC[C@H](OC7OC(C(=O)O)C(O)C(OC8OCC(O)C(O)C8O)C7OC7OC(CO)C(O)C(O)C7O)[C@@](C)(CO)C6CC[C@@]5(C)[C@]3(C)C[C@H]4O)C(OC3OC(C)C(OC4OCC(O)C(OC5OC(CO)C(O)C(O)C5O)C4O)C(O)C3O)C2O)C(O)C(OC2OCC(O)C(O)C2O)C1O (stereo partly drawn) [SO1861-(Ald-OH)-(Ac—OH)]
IC50 (HeLa cells; [8]): > 100000 nM | IC50 (A431 cells; [9]): > 100000 nM | IC50 (human red blood cells; [10]): 200000 nM | IC50 (human red blood cells; [11]): 200000 nM | IC50 (human red blood cells; [5]): 200000 nM | CMC [1]: >280 µM

CC(=O)OC1C(C)OC(OC2C(C)OC(OC(=O)[C@]34CCC(C)(C)CC3C3=CCC5[C@@]6(C)CC[C@H](OC7OC(C(=O)O)C(O)C(OC8OCC(O)C(O)C8O)C7OC7OC(CO)C(O)C(O)C7O)[C@@](C)(/C=N/NC(=O)CCCCCN7C(=O)C[C@H](SCCO)C7=O)C6CC[C@@]5(C)[C@]3(C)C[C@H]4O)C(OC3OC(C)C(OC4OCC(O)C(OC5OC(CO)C(O)C(O)C5O)C4O)C(O)C3O)C2O)C(O)C1OC1OCC(O)C(O)C1O (stereo partly drawn) [SO1861-Ald-EMCH-blocked]
IC50 (HeLa cells; [13]): > 100000 nM | IC50 (HeLa cells; [14]): > 100000 nM | IC50 (human red blood cells; Homo sapiens, Erythrocyte, Table A5, read-out: IC50 nM (hemolysis)): 300000 nM | IC50 (human red blood cells; Homo sapiens, Erythrocyte, Table A6, read-out: IC50 nM (hemolysis)): 300000 nM | IC50 (human red blood cells; Homo sapiens, Erythrocyte, read-out: IC50 hemolytic activity): 300000 nM | CMC [1]: 50 ± 5 µM

CC(=O)OC1C(C)OC(OC2C(C)OC(OC(=O)[C@]34CCC(C)(C)CC3C3=CCC5[C@@]6(C)CC[C@H](OC7OC(C(=O)NCCN8C(=O)C=CC8=O)C(O)C(OC8OCC(O)C(O)C8O)C7OC7OC(CO)C(O)C(O)C7O)[C@@](C)(C=O)C6CC[C@@]5(C)[C@]3(C)C[C@H]4O)C(OC3OC(C)C(OC4OCC(O)C(OC5OC(CO)C(O)C(O)C5O)C4O)C(O)C3O)C2O)C(O)C1OC1OCC(O)C(O)C1O (stereo partly drawn) [SO1861-Glu-AEM]
IC50 (HeLa cells; [13]): > 100000 nM | IC50 (HeLa cells; [14]): > 100000 nM | IC50 (A431 cells; Homo sapiens, A-431, Table A6, saponin alone, read-out: IC50 nM (Toxicity)): > 100000 nM | IC50 (A431 cells; Homo sapiens, A-431, text, saponin alone, read-out: IC50 toxicity): > 100000 nM | CMC [1]: 45 ± 5 µM

CC(=O)OC1C(C)OC(OC2C(C)OC(OC(=O)[C@]34CCC(C)(C)CC3C3=CCC5[C@@]6(C)CC[C@H](OC7OC(C(=O)NC(C)(CO)CO)C(O)C(OC8OCC(O)C(O)C8O)C7OC7OC(CO)C(O)C(O)C7O)[C@@](C)(C=O)C6CC[C@@]5(C)[C@]3(C)C[C@H]4O)C(OC3OC(C)C(OC4OCC(O)C(OC5OC(CO)C(O)C(O)C5O)C4O)C(O)C3O)C2O)C(O)C1OC1OC(C)C(O)C(O)C1O (stereo partly drawn) [SO1861-Glu-AMPD]
CMC [1]: 50 ± 5 µM

Aescin [reference compound]
IC50 (HeLa cells; [4]): > 30000 nM | IC50 (A431 cells; [15]): > 30000 nM | IC50 (human red blood cells; [5]): 10000 nM

QS21 [reference compound]
IC50 (HeLa cells; [15]): 6000 nM and 10000 nM | IC50 [2, 6]: 200 nM | IC50 [2, 12]: 200 nM | IC50 ([2]; Table A12, HeLa cells, + 5 pM EGFdianthin, read-out: IC50 nM (Activity)): 200 nM | IC50 [3, 7]: 90 nM
